# Assay results: patent US20160115540A1, “PRODRUGS AND DRUGS” (Biogen MA Inc., priority 2013, published 2016)
# Counter-ions that a name gives are not always drawn.
# Test system: blood and tissues
# Test: Transcriptional profiling, multi-dosing regimen, naïve mice: blood and other tissues
# Assay type: in vivo
# Details: for Number of differentially expressed genes identified: Cerebellum / Number of differentially expressed genes identified: Lymph Node / Number of differentially expressed genes identified: Whole blood: Table 13: Naïve, Single Dose (so in the source), 12 h after last dosing
# Experimental: In vivo, DMF is rapidly metabolized to monomethyl fumarate (MMF). […] Animals were exposed to CO2 and whole blood collected via cardiac puncture. Two 100 μl aliquots of whole blood were collected in 1.5 mL microcentrifuge tubes and snap frozen in liquid nitrogen. Peripheral (liver, spleen, kidney and jejunum) and CNS brain (cerebellum, hippocampus, striatum and cortex) tissues were harvested and snap frozen in liquid nitrogen, with special care taken to collect tissues of similar size and from the same location. All samples were stored at -80° C. until RNA extraction was conducted. For RNA preparation, frozen tissues were placed in 2 mL RNAse-free 96-well blocks with 1.5 mL QIAzol Lysis Reagent (QIAgen) and a 3.2 mm stainless steel bead (BioSpec Products, Bartlesville, Okla.). Tissues were disrupted for four cycles of 45 seconds in a Mini-Beadbeater (Biospec Products). RNA was extracted in chloroform and the aqueous phase was mixed with an equal volume of 70% ethanol. Extracted RNA was applied to RNeasy 96 plates and purified by the spin method according to the manufacturer's protocol (RNeasy 96 Universal Tissue Protocol, QIAgen, Hilden Germany). 50 ul of snap frozen mouse blood was re-suspended in lysis buffer with proteinase K and arrayed into deep-well plates for automated RNA extraction. RNA extractions were completed on […] (Beckman Coulter, Indianapolis, Ind.) using Agencourt RNAdvance Blood kit (Part number A35604) according to the manufacturer's specifications. RNA integrity was assessed using the HT RNA reagent kit (Part number 760410, Caliper Life Sciences, Hopkinton, Mass.) using a LabChip GX (PerkinElmer, Waltham, Mass.). RNA samples with a RQS score of >8.0 were considered high quality for downstream microarray processing. […] Two micrograms of biotin labeled […] probe were hybridized to Affymetrix GeneChip Affymetrix HT_MG-430_PM plate arrays with modified conditions as described in […] et al. Washing and staining of the hybridized arrays were completed as described in the GeneChip Expression analysis technical manual for HT plate arrays using the Genechip® Array Station (Affymetrix, Santa Clara, Calif.) with modifications as described in […] et al. The processed GeneChip® plate arrays were scanned using GeneTitan scanner (Affymetrix, Santa Clara, Calif.). Affymetrix scans were subject to quality control (QC) measures. These tests included a visual inspection of the distribution of raw signal intensities and an assessment of RNA degradation, relative log expression (RLE), and normalized unsealed standard error (NUSE). All sample scans that passed these QC metrics were included in the analysis. All CEL files were subjected to GC-content-based Robust Multi-array Average (GCRMA) normalization (version 2.20.0) (Irizarry R A, et al. Nucleic Acids Res 2003; 31:e15; Li C, et al. Genome Biol 2001; 2:[…]0032). […] Stat Appl Genet Mol Biol 2004; 3:Article3). […] Springer Science+Business Media 2005). Changes in gene expression were studied by applying a linear modeling approach to fit gene expression levels according to the defined groups of samples (e.g. DMF-, MMF-, and Vehicle-treated animals) and Bayesian posterior error analysis as implemented by Smyth (Smyth G K. Stat Appl Genet Mol Biol 2004; 3:Article3). The comparisons considered included: DMF-vs-MMF, DMF-vs-Vehicle, and MMF-vs-Vehicle. […] Very few DEGs are observed in blood and tissues derived from the central nervous system (brain, cerebellum, cortex, striatum, and spinal cord).
# [1] = CEREBELLUM, 100DMF-vs-Veh, naïve multidose
# [2] = LYMPH NODE, 100DMF-vs-Veh, naïve multidose
# [3] = WHOLE BLOOD, 100DMF-vs-100MMF, naïve multidose
smiles,measurement,setting,value
"COC(=O)/C=C/C(=O)OC [DMF, dimethyl fumarate]",FC,"1110020A21Rik 1439574_PM_at, WHOLE BLOOD, 100DMF-vs-Veh",−1.77
same,FC,"8430427H17Rik 1428284_PM_at, WHOLE BLOOD, 100DMF-vs-Veh",−1.73
same,FC 1110021J02Rik (1419892_PM_at),[1],1.54
same,FC Aox1 (1419435_PM_at),[1],1.60
same,FC Apold1 (1441228_PM_at),[1],1.85
same,FC Cnnm3 (1420481_PM_at),[1],1.62
same,FC Prr15 (1452473_PM_at),[1],1.80
same,FC Rapgef4 (1421622_PM_a_at),[1],−1.55
same,FC Tgm2 (1437277_PM_x_at),[1],1.51
same,FC probe 1457266_PM_at (no gene symbol),[1],1.51
same,FC Ccl6 (1420249_PM_s_at),[2],1.66
same,FC Ccl17 (1419413_PM_at),[2],−1.57
same,FC Nqo1 (1423627_PM_at),[2],1.95
same,FC Nts (1422860_PM_at),[2],2.72
same,FC,"Parm1 1424214_PM_at, WHOLE BLOOD, 100DMF-vs-Veh",−1.68
same,FC,"Pla2g7 1430700_PM_a_at, WHOLE BLOOD, 100DMF-vs-Veh",1.65
same,FC,"Slc27a2 1416316_PM_at, WHOLE BLOOD, 100DMF-vs-Veh",−2.37
same,Number of differentially expressed genes identified: Cerebellum,100 mpk DMF-vs-90 mpk MMF,0
same,Number of differentially expressed genes identified: Lymph Node,100 mpk DMF-vs-90 mpk MMF,0
same,Number of differentially expressed genes identified: Whole blood,100 mpk DMF-vs-90 mpk MMF,0
same,Number of differentially expressed genes identified: Cerebellum,100 mpk DMF-vs-Vehicle,8
same,Number of differentially expressed genes identified: Lymph Node,100 mpk DMF-vs-Vehicle,4
same,Number of differentially expressed genes identified: Whole blood,100 mpk DMF-vs-Vehicle,5
same,FC 2610001J05Rik (1448002_PM_x_at),[3],−4.35
same,FC 8430408G22Rik (1433836_PM_a_at),[3],1.78
same,FC A730017C20Rik (1437528_PM_x_at),[3],1.56
same,FC Aco1 (1456728_PM_x_at),[3],1.56
same,FC Cadm2 (1435146_PM_s_at),[3],1.50
same,FC Cdk7 (1424257_PM_at),[3],1.73
same,FC Cherp (1436885_PM_a_at),[3],1.53
same,FC Neo1 (1447694_PM_x_at),[3],−3.98
